Experimental data taken from ChEMBL document CHEMBL1201862, “PubChem BioAssay data set” (2004).
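How tested: cells in 96-well plates exposed to compound for 48 hours at five concentrations. At the GI50, growth is halved.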 Calls of active or inactive are those of the source. Rule as the data show it: active = GI50 up to about 1.1 µM and inactive = higher.

Assays:
Assay in all cases: growth of human tumour cells (NCI), 48 h
[1] = tested on: 786-0
[2] = tested on: U-251
[3] = tested on: UACC-62
[4] = tested on: NCI/ADR-RES
[5] = tested on: NCI-H522
[6] = tested on: PC-3
[7] = tested on: DU-145
[8] = tested on: M14
[9] = tested on: NCI-H23
[10] = tested on: SK-OV-3
[11] = tested on: HCC 2998
[12] = tested on: HOP-62
[13] = tested on: SF-539
[14] = tested on: SK-MEL-28
[15] = tested on: A498
[16] = tested on: SN12C
[17] = tested on: MDA-MB-435
[18] = tested on: OVCAR-4
[19] = tested on: LOX IMVI

Row | SMILES | GI50 [1] | GI50 [2] | GI50 [3] | GI50 [4] | GI50 [5] | GI50 [6] | GI50 [7] | GI50 [8] | GI50 [9] | GI50 [10] | GI50 [11] | GI50 [12] | GI50 [13] | GI50 [14] | GI50 [15] | GI50 [16] | GI50 [17] | GI50 [18] | GI50 [19]
1 | CC1(C)COCN1COC1CCCCC1 | > 100 µM (inactive) | > 100 µM (inactive) | > 100 µM (inactive) | > 100 µM (inactive) | > 100 µM (inactive) | > 100 µM (inactive) | > 100 µM (inactive) | > 100 µM (inactive) | > 100 µM (inactive) | > 100 µM (inactive) | > 100 µM (inactive) | > 100 µM (inactive) | > 100 µM (inactive) | > 100 µM (inactive) | > 100 µM (inactive) | > 100 µM (inactive) | > 100 µM (inactive) | > 100 µM (inactive) | –
2 | O=C(Cc1ccccc1CCO)NCCc1ccccc1 | > 100 µM (inactive) | > 100 µM (inactive) | > 100 µM (inactive) | > 100 µM (inactive) | > 100 µM (inactive) | > 100 µM (inactive) | > 100 µM (inactive) | > 100 µM (inactive) | > 100 µM (inactive) | > 100 µM (inactive) | > 100 µM (inactive) | > 100 µM (inactive) | > 100 µM (inactive) | > 100 µM (inactive) | > 100 µM (inactive) | > 100 µM (inactive) | > 100 µM (inactive) | > 100 µM (inactive) | –
3 | C/C(=N\Nc1nc2cccnc2s1)c1ccccn1 | 0.0512 µM (active) | < 0.0189 µM (active) | 0.0586 µM (active) | < 0.01 µM (active) | < 0.01 µM (active) | 0.0202 µM (active) | 0.316 µM (active) | < 0.01 µM (active) | 0.0228 µM (active) | 0.0902 µM (active) | 1.07 µM (active) | 0.401 µM (active) | 0.124 µM (active) | 0.364 µM (active) | > 100 µM (inactive) | < 0.01 µM (active) | 0.8 µM (active) | 1.07 µM (active) | –
4 | COC(=O)CCC(=O)NC1=C(NCc2ccccc2)C(=O)c2ccccc2C1=O | 38.5 µM (inactive) | 28.9 µM (inactive) | 17.3 µM (inactive) | 29.3 µM (inactive) | 19.1 µM (inactive) | 25.2 µM (inactive) | 45.3 µM (inactive) | 18.7 µM (inactive) | 21.3 µM (inactive) | 57.3 µM (inactive) | 37.2 µM (inactive) | – | 20.1 µM (inactive) | 88.3 µM (inactive) | 67.9 µM (inactive) | 25.5 µM (inactive) | 18.9 µM (inactive) | 18.5 µM (inactive) | 21.8 µM (inactive)
5 | Cc1ccc(NCc2nnc3c(-c4ccccc4)nc4ccccc4n23)cc1 | 27.9 µM (inactive) | 16.7 µM (inactive) | 33.7 µM (inactive) | 50.9 µM (inactive) | 16 µM (inactive) | 19.1 µM (inactive) | 25.2 µM (inactive) | 37.6 µM (inactive) | – | 40.6 µM (inactive) | 44.6 µM (inactive) | 46.1 µM (inactive) | 60.5 µM (inactive) | 64 µM (inactive) | 32.6 µM (inactive) | 32.6 µM (inactive) | 29.6 µM (inactive) | 28.2 µM (inactive) | 23.5 µM (inactive)
6 | CN(C)CCNC(=O)c1cccc2nc3c(C(=O)NCCN(C)C)cccc3nc12 | 0.393 µM (active) | 0.632 µM (active) | 2.9 µM (inactive) | 5.15 µM (inactive) | 0.458 µM (active) | 0.76 µM (active) | 1.37 µM (inactive) | 1.51 µM (inactive) | 1.19 µM (inactive) | – | 1.15 µM (inactive) | 1.31 µM (inactive) | 1.92 µM (inactive) | 2.03 µM (inactive) | 1.85 µM (inactive) | 0.918 µM (active) | 1.21 µM (inactive) | 0.589 µM (active) | 0.366 µM (active)
7 | COC(=O)c1cc2c(cc1Cl)Sc1nnc(Nc3ccc(C)cc3)n1S2(=O)=O | 7.69 µM (inactive) | 3.87 µM (inactive) | 12.3 µM (inactive) | 11.1 µM (inactive) | 2.67 µM (inactive) | 4.85 µM (inactive) | 2.65 µM (inactive) | 12.7 µM (inactive) | 3.61 µM (inactive) | 11.9 µM (inactive) | 4.75 µM (inactive) | 8.89 µM (inactive) | 1.17 µM (inactive) | 9.33 µM (inactive) | 15.2 µM (inactive) | 18.1 µM (inactive) | 7.19 µM (inactive) | 2.76 µM (inactive) | –
8 | O=C(NCCO)c1c(O)c2ccccc2[nH]c1=O | > 100 µM (inactive) | > 100 µM (inactive) | – | > 100 µM (inactive) | > 100 µM (inactive) | > 100 µM (inactive) | > 100 µM (inactive) | – | > 100 µM (inactive) | – | > 100 µM (inactive) | > 100 µM (inactive) | > 100 µM (inactive) | > 100 µM (inactive) | > 100 µM (inactive) | > 100 µM (inactive) | > 100 µM (inactive) | > 100 µM (inactive) | > 100 µM (inactive)
9 | O=C1C=CC(=O)C(N(CCO)CCO)=C1.O=C1C=CC2(O)OCCN(CCO)C2=C1 | > 100 µM (inactive) | > 100 µM (inactive) | > 100 µM (inactive) | > 100 µM (inactive) | > 100 µM (inactive) | > 100 µM (inactive) | > 100 µM (inactive) | > 100 µM (inactive) | > 100 µM (inactive) | > 100 µM (inactive) | > 100 µM (inactive) | > 100 µM (inactive) | – | > 100 µM (inactive) | > 100 µM (inactive) | > 100 µM (inactive) | > 100 µM (inactive) | > 100 µM (inactive) | > 100 µM (inactive)
10 | CCOC(=O)C1=C(C)N(Cc2ccc(Cl)cc2Cl)C2(O)C(OC)CC(=O)C3C(=O)N(c4ccccc4)C(=O)C132 (stereo unspecified) | 1.47 µM (inactive) | 1.5 µM (inactive) | 3.13 µM (inactive) | 2.01 µM (inactive) | 2.01 µM (inactive) | 2.64 µM (inactive) | 1.06 µM (active) | 2.09 µM (inactive) | 3.46 µM (inactive) | – | 2.08 µM (inactive) | 0.995 µM (active) | 2.86 µM (inactive) | 1.97 µM (inactive) | 10.8 µM (inactive) | 2.26 µM (inactive) | 2.63 µM (inactive) | 1.6 µM (inactive) | 1.05 µM (active)
11 | CCCCCCCCCCOCCOCCOCCOCCCCC(O)CCCCCCCC1=C[C@H](C)OC1=O (stereo partly specified) | 18.6 µM (inactive) | 11.1 µM (inactive) | 13.2 µM (inactive) | 7.41 µM (inactive) | 6.34 µM (inactive) | 9.98 µM (inactive) | 14.7 µM (inactive) | 14.3 µM (inactive) | 0.774 µM (active) | 16.5 µM (inactive) | 13.2 µM (inactive) | – | 12.1 µM (inactive) | 12.2 µM (inactive) | 13.6 µM (inactive) | 13.3 µM (inactive) | 12 µM (inactive) | 12.6 µM (inactive) | 4.98 µM (inactive)
